{
  "source": "patent US20200222400A1",
  "about": "“METHODS FOR THE TREATMENT OF NEUROLOGICAL DISORDERS” (Yumanity Therapeutics, Inc., priority 2019, published 2020)",
  "tested_on": "A53T α-synuclein transfected human iPSC-derived neurons",
  "test": "Neuron survival assay, A53T α-synuclein transfected human iPSC-derived neurons",
  "assay_type": "cell-based",
  "details": "all tested concentrations, 3 μM to 0.3 μM, relative to DMSO",
  "method": "Transfected neuronal cultures were imaged at 12-24 h intervals for the indicated number of days by robotic microscopy. Fluorescence images were acquired with a Nikon Eclipse Ti microscope equipped with a motorized stage, 20× extra-long working distance (ELWD) objective, and an Andor Zyla cMOS camera. During image acquisition, microplates were enclosed in an on-stage environmental chamber controlling temperature, CO2, and humidity (Okolab). Images were processed and analyzed with custom-made scripts in R and ImageJ software. The lifetimes of individual neurons were determined by tracking fluorescently-labeled neurons in ImageJ. Neuronal death was determined to occur upon incidence of RFP signal loss or rupture of cell body. Cox proportional hazards analysis was used to generate cumulative hazard plots and determine the risk of neuron death. Log-rank test was used to determine statistical significance of survival curve divergence between neuron cohorts.\nA model of α-synuclein toxicity utilizing transient transfection into human iPSC-derived neurons was developed. […] This model was utilized to evaluate the role of SCD in α-synuclein-dependent neuronal toxicity. Human iPSC-derived neurons were transfected with a construct encoding A53T α-synuclein or an empty vector control. […]",
  "data": [
    {"smiles": "Cc1nnc(-c2ccc(N3CCC(Oc4cc(F)ccc4Cl)CC3)nn2)o1", "note": "[CAY10566]", "values": [
      {"measurement": "risk of neuron death", "result": "significantly reduced"}
    ]}
  ]
}
